Experimental data taken from publication PMC2807854, “Monoketone analogs of curcumin, a new class of Fanconi anemia pathway inhibitors” (Molecular Cancer, 2009).

Test system: 334ATM WT cells
Assay: Survival assay (MTS), ATM wild-type mouse kidney cells
Type: cell-based
Settings: Mus musculus, 72 hrs, read-out: cell survival IC50 WT
Excerpt: To test this possibility, we compared the effects of curcumin and EF24 in an ATM KO mouse kidney cell line (309ATM KO) and its isogenic, wild type counterpart (334ATM WT). As expected from ATM deficiency, 309ATM KO cells were more sensitive to ionizing irradiation than 334ATM WT (Additional File 1 - Fig. S3). We next treated these cell lines with various concentrations of EF24 and measured their survival after 72 hrs.
Figure 6 EF24 but not curcumin or DRB is more toxic to ATM-deficient mouse kidney cells than wild-type cells. A) 309ATM KO and 334ATM WT cells were treated with various concentrations of EF24. Cell viability was measured after 3 days by MTS assay. Each point represents the mean of 3 repeats. Error bars represent standard deviation. B) Similar experiment was performed using curcumin.
HSC72OT and HSC72OT+A cells were seeded at 5,000 per well in 96-well plates, and treated 24 hrs later with various concentrations of compounds or DMSO (1 μl in 100 μl medium). 309ATM KO and 334ATM WT cells were seeded at 7,000 per well and treated immediately. Cell survival was measured after 3 days using the CellTiter 96 AQueous One Solution Cell Proliferation Assay (Promega) following the recommendations from the manufacturer. All experiments were done in triplicate.
Fitted curves were determined from experimental data using IgorPro. The concentration of compound that induces 50% inhibition of the measured endpoint (i.e. FANCD2 ubiquitylation, Mre11 phosphorylation and cell survival) was then plotted on the fitted curve.

`O=C1/C(=C/c2ccccc2F)CNC/C1=C\c1ccccc1F` [EF24, 3,5-bis(2-flurobenzylidene)piperidin-4-one] gave an IC50 of 5.8 µM.
